Test results taken from patent publication US9938259B2, “Therapeutic compositions and related methods of use” (Agios Pharmaceuticals, Inc., priority 2009, dated 2018).

Target: PKM2 (Homo sapiens, UniProt P14618)
Assay: PKM2 Assay
Type: biochemical
Conditions: activation of PKM2 enzyme, LDH-coupled, absorbance at 340 nm; read-out: PKM2_AC50
Method: • PKM2 stock enzyme solution was diluted in Reaction Buffer • 2 μL of compound was added into each well first, and then 180 μL of the Reaction Mix was added. • Reaction mixture with compound (without ADP) were incubated for 30 minutes at 4° C. • Plates were re-equilibrated to room temperature prior to adding 20 μL ADP to initiate the reaction. • Reaction progress was measured as changes in absorbance at 340 nm wavelength at room temperature (25° C.) • Reaction Mix: PKM2 (50 ng/well), ADP (0.7 mM), PEP (0.15 mM), NADH (180 μM), LDH (2 units) in Reaction Buffer • Reaction Buffer: 100 mM KCl, 50 mM Tris pH 7.5, 5 mM MgCl2, 1 mM DTT, 0.03% BSA.

Chain of PKM2 (P14618 whole entry): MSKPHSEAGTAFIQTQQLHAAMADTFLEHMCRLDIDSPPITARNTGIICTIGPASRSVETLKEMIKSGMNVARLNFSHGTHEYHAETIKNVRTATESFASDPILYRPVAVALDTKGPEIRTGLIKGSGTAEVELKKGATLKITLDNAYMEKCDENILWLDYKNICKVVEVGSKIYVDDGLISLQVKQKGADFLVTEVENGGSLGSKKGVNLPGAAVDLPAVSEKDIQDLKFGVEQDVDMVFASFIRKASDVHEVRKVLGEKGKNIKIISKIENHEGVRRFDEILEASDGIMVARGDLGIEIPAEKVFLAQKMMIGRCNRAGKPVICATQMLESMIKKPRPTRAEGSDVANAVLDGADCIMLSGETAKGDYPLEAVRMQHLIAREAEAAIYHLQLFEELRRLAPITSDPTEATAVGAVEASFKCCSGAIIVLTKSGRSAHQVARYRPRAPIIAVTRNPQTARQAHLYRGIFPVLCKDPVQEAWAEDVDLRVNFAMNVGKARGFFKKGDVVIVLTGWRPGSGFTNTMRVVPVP

| Compound | AC50 |
| --- | --- |
| COc1cc(NS(=O)(=O)c2cccn2-c2ncc(C(F)(F)F)cc2Cl)cc(C(F)(F)F)c1 | 0.5 to 1 µM |
| O=S(=O)(Nc1ccc(Cl)cc1)c1cnn(-c2ncc(C(F)(F)F)cc2Cl)c1 | 0.1 to 0.5 µM |
| O=S(=O)(Nc1ccc(F)c(Cl)c1)c1cncn1-c1ccnc(Cl)n1 | 0.1 to 0.5 µM |
| Cc1cc(C)cc(NS(=O)(=O)c2cncn2-c2cnccn2)c1 | < 0.1 µM |
| Cc1cc(NS(=O)(=O)c2cncn2-c2cnccn2)ccc1F | 0.1 to 0.5 µM |
| COc1cc(NS(=O)(=O)c2cccn2-c2ccnc(Cl)n2)cc(C(F)(F)F)c1 | 0.5 to 1 µM |
| COc1ccc(NS(=O)(=O)c2cnn(-c3ncc(C(F)(F)F)cc3Cl)c2)cc1 | 1 to 10 µM |
| O=S(=O)(Nc1cc(F)cc(F)c1)c1cncn1-c1ccnc(Cl)n1 | > 10 µM |
| O=S(=O)(Nc1ccc(F)cc1)c1cncn1-c1ccc(C(F)(F)F)cn1 | 1 to 10 µM |
| O=S(=O)(Nc1ccc(F)cc1)c1cncn1-c1ncc(C(F)(F)F)cc1Cl | 1 to 10 µM |
| O=S(=O)(Nc1ccc(F)cc1)c1cccn1-c1ccc(C(F)(F)F)cn1 | 1 to 10 µM |
| COc1cc(NS(=O)(=O)c2cncn2-c2ncc(C(F)(F)F)cc2Cl)cc(C(F)(F)F)c1 [drawing 144] | 0.5 to 1 µM |
| O=S(=O)(Nc1cccc(C(F)(F)F)c1)c1cncn1-c1ncc(C(F)(F)F)cc1Cl | 1 to 10 µM |

Continued, values first:

| AC50 | Compound |
| --- | --- |
| 1 to 10 µM | Cc1cc(NS(=O)(=O)c2ccnn2-c2nccs2)ccc1F |
| 0.1 to 0.5 µM | O=S(=O)(Nc1ccc(F)c(Cl)c1)c1cccn1-c1ncccc1Cl |
| 0.1 to 0.5 µM | N#Cc1cccc(NS(=O)(=O)c2cccn2-c2ncc(C(F)(F)F)cc2Cl)c1 |
| 0.1 to 0.5 µM | O=S(=O)(Nc1ccc2c(c1)OCO2)c1cccn1-c1nccc(Cl)n1 |
| 1 to 10 µM | O=S(=O)(Nc1ccc(F)cc1)c1cncn1-c1ncccn1 |
| 1 to 10 µM | Cc1cc(NS(=O)(=O)c2ccnn2-c2cccs2)ccc1F |
| > 10 µM | O=S(=O)(Nc1cccc(Cl)c1)c1ccnn1-c1cccs1 |
| 1 to 10 µM | Cc1cc(NS(=O)(=O)c2cncn2-c2cccs2)ccc1F |
